Structures can show the parent of a compound that is named as a salt. Where two headings read alike, the source gives them in different places.
Assays:
Type in all cases: biochemical
recombinant PRL-2 = target: T1, recombinant PRL-2 (Homo sapiens, UniProt Q12974); test: In vitro phosphatase assay (DiFMUP hydrolysis), PRL-2;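 also: PRL-2 activity read as DiFMUP hydrolysis after 20 min at room temperature with drug, enzyme first pre-reduced at 4 °C for 20 min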
T1 construct: 6xHis (N, cleaved yes); made in house; host or cells: E. coli One Shot BL21 Star
T1 sequence (Q12974 1-167): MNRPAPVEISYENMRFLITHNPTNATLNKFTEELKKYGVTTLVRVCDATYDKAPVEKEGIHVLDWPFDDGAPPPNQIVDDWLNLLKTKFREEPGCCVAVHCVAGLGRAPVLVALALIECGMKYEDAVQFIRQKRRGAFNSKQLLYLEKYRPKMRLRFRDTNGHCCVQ

recombinant PRL-1 = target: T2, recombinant PRL-1 (Homo sapiens, UniProt Q93096); test: In vitro phosphatase assay (DiFMUP hydrolysis), PRL-1; also: test concentration or dose not given here
T2 construct: 6xHis (N, cleaved yes); made in house; host or cells: E. coli One Shot BL21 Star
T2 sequence (Q93096 1-173): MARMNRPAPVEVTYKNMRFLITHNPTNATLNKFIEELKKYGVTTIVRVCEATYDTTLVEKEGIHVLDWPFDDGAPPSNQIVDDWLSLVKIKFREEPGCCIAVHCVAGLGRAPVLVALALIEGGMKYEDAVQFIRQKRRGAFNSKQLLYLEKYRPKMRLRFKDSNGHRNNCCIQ

recombinant PRL-3 = target: T3, recombinant PRL-3 (Homo sapiens, UniProt O75365); test: In vitro phosphatase assay (DiFMUP hydrolysis), PRL-3; also: test concentration or dose not given here
T3 construct: 6xHis (N, cleaved yes); made in house; host or cells: E. coli One Shot BL21 Star
T3 sequence (O75365 whole entry): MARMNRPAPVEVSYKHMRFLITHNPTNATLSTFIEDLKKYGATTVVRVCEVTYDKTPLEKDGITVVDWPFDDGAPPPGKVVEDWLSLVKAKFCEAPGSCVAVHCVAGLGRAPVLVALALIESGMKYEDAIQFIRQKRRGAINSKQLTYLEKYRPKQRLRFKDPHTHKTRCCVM

[1] = FDA-approved drug screen, compared to DMSO
[2] = FDA-approved drug screen, activity compared to DMSO

| Compound | % Phosphatase Activity (compared to DMSO) PRL-2 (recombinant PRL-2; [1]) | % Phosphatase Activity (compared to DMSO) PRL-1 (recombinant PRL-1; [1]) | % Phosphatase Activity (compared to DMSO) PRL-3 (recombinant PRL-3; [1]) | other results |
| --- | --- | --- | --- | --- |
| Cc1ccc(NC(=O)c2ccc(CN3CC[C@H](N(C)C)C3)c(C(F)(F)F)c2)cc1Nc1nccc(-c2cncnc2)n1 [Bafetinib (INNO-406)] | 105% | 97% | 76% |  |
| COc1cc2nccc(Oc3ccc(NC(=O)NC4CC4)c(Cl)c3)c2cc1C(N)=O [Lenvatinib (E7080)] | 85% | 96% | 87% |  |
| CC(=O)c1c(C)c2cnc(Nc3ccc(N4CCNCC4)cn3)nc2n(C2CCCC2)c1=O.O=S(=O)(O)CCO [Palbociclib (PD0332991) Isethionate] | 61% | 75% | 100% |  |
| CCOc1cc(N)c(Cl)cc1C(=O)NCC1CN(Cc2ccc(F)cc2)CCO1 (stereo not shown) [Mosapride Citrate] | 101% | 88% | 57% |  |
| c1cn2cc(-c3ccc4cn[nH]c4c3)nc(Nc3ccc(N4CCOCC4)cc3)c2n1 [GS-9973] | 209% | 294% | 104% |  |
| Cc1c(C(=O)Nc2ccc(N3C[C@@H](C)O[C@@H](C)C3)nc2)cccc1-c1ccc(OC(F)(F)F)cc1 [LDE225 (NVP-LDE225,Erismodegib)] | 111% | 97% | 83% |  |
| CCCC(=O)O[C@]1(C(=O)COC(C)=O)CC[C@H]2[C@@H]3C[C@H](F)C4=CC(=O)C=C[C@]4(C)[C@@]3(F)[C@@H](O)C[C@@]21C [Difluprednate] | 76% | 82% | 67% |  |
| Bivalirudin Trifluoroacetate | 81% | 86% | 88% |  |
| CCC1=C[C@@H]2CN(C1)Cc1c([nH]c3ccccc13)[C@@](C(=O)OC)(c1cc3c(cc1OC)N(C)[C@H]1[C@@](O)(C(=O)OC)[C@H](OC(C)=O)[C@]4(CC)C=CCN5CC[C@]31[C@@H]54)C2 [Vinorelbine Tartrate] |  |  |  | % Phosphatase Activity (compared to DMSO) PRL-2 (recombinant PRL-2; [2]): 98%; % Phosphatase Activity (compared to DMSO) PRL-1 (recombinant PRL-1; [2]): 89%; % Phosphatase Activity (compared to DMSO) PRL-3 (recombinant PRL-3; [2]): 83% |
| CN1CCN(C(c2ccccc2)c2ccccc2)CC1.Cl.Cl [Cyclizine 2HCl] | 116% | 94% | 69% |  |
| CC1(C)Cc2c(-c3ccccc3)c(-c3ccc(Cl)cc3)c(CC(=O)O)n2C1 [Licofelone] | 85% | 80% | 69% |  |
| C[N+]1(C)CCC(OC(=O)C(O)(c2ccccc2)C2CCCC2)C1 (stereo not shown) [Glycopyrrolate] | 101% | 108% | 82% |  |
| Nc1ccc(S(=O)(=O)NC(=O)c2ccccc2)cc1 [Sulfabenzamide] |  |  |  | % Phosphatase Activity (compared to DMSO) PRL-2 (recombinant PRL-2; [2]): 121%; % Phosphatase Activity (compared to DMSO) PRL-1 (recombinant PRL-1; [2]): 93%; % Phosphatase Activity (compared to DMSO) PRL-3 (recombinant PRL-3; [2]): 83% |
| CCCCCCCN(CC)CCCC(O)c1ccc(NS(C)(=O)=O)cc1.CCCCCCCN(CC)CCCC(O)c1ccc(NS(C)(=O)=O)cc1.O=C(O)/C=C/C(=O)O (stereo not shown) [Ibutilide Fumarate] | 128% | 100% | 88% |  |
| CCc1cccc2c3c([nH]c12)C(CC)(CC(=O)O)OCC3 (stereo not shown) [Etodolac] | 104% | 96% | 72% |  |
| COc1cc2nc(N3CCN(C(=O)C4COc5ccccc5O4)CC3)nc(N)c2cc1OC (stereo not shown) [Doxazosin Mesylate] | 528% | 441% | 305% |  |
| OC[C@H]1O[C@@H](c2ccc(Cl)c(Cc3ccc(O[C@H]4CCOC4)cc3)c2)[C@H](O)[C@@H](O)[C@@H]1O [Empagliflozin (BI 10773)] | 93% | 109% | 97% |  |
| Maraviroc |  | 82% | 93% |  |
| CN1CCN(CCCN2c3ccccc3Sc3ccc(C(F)(F)F)cc32)CC1.Cl.Cl [Trifluoperazine 2HCl] |  |  |  | % Phosphatase Activity (compared to DMSO) PRL-1 (recombinant PRL-1; [2]): 103%; % Phosphatase Activity (compared to DMSO) PRL-3 (recombinant PRL-3; [2]): 100% |
| Gentamicin Sulfate | 96% | 95% |  |  |
| O=C1NC(=O)C(c2ccccc2)(c2ccccc2)N1 [Phenytoin] |  | 104% | 84% |  |
| CN/C(=N/CCSCc1nc[nH]c1C)NC#N [Cimetidine] |  |  |  | % Phosphatase Activity (compared to DMSO) PRL-1 (recombinant PRL-1): 96%; % Phosphatase Activity (compared to DMSO) PRL-3 (recombinant PRL-3): 112% |
| C=CCN1CC[C@]23c4c5ccc(O)c4O[C@H]2C(=O)CC[C@@]3(O)[C@H]1C5 [Naloxone HCl] | 123% | 105% |  |  |

| Compound | % Phosphatase Activity (compared to DMSO) PRL-2 (recombinant PRL-2; [1]) | % Phosphatase Activity (compared to DMSO) PRL-1 (recombinant PRL-1; [1]) | % Phosphatase Activity (compared to DMSO) PRL-3 (recombinant PRL-3; [1]) | other results |
| --- | --- | --- | --- | --- |
| Polymyxin B sulphate |  | 98% | 98% |  |
| CCN(CC)CCCC(C)Nc1ccnc2cc(Cl)ccc12 (stereo not shown) [Chloroquine Phosphate] | 115% | 104% |  |  |
| Colistin Sulfate |  | 91% | 120% |  |
| Nc1ccc(S(=O)(=O)Nc2ncccn2)cc1 [Sulfadiazine] |  |  |  | % Phosphatase Activity (compared to DMSO) PRL-1 (recombinant PRL-1): 105%; % Phosphatase Activity (compared to DMSO) PRL-3 (recombinant PRL-3): 103% |
| Cl.O=C(O)/C=C/c1ccc(Cn2ccnc2)cc1 [Ozagrel HCl] | 120% |  | 81% |  |
| COc1cc2nccc(Oc3ccc(NC(=O)C4(C(=O)Nc5ccc(F)cc5)CC4)cc3)c2cc1OC [Cabozantinib (XL184, BMS-907351)] | 96% |  | 75% |  |
| N[C@@H](CSCCCO)C(=O)O [Fudosteine] | 75% |  | 92% |  |
| Cc1ccc([C@@H]2O[C@H](CO)[C@@H](O)[C@H](O)[C@H]2O)cc1Cc1ccc(-c2ccc(F)cc2)s1 [Canagliflozin] | 106% |  | 90% |  |
| Bleomycin Sulfate | 100% |  | 64% |  |
| COc1cc(Nc2c(C#N)cnc3cc(OCCCN4CCN(C)CC4)c(OC)cc23)c(Cl)cc1Cl [Bosutinib (SKI-606)] |  | 94% | 82% |  |
| CN1[C@@H]2C[C@@H](OC(=O)[C@H](CO)c3ccccc3)C[C@H]1[C@@H]1O[C@@H]12 [Scopolamine HBr] |  | 91% | 77% |  |
| CCC1(C)CC(=O)NC(=O)C1 [Bemegride] | 97% |  | 81% |  |
| CCN[C@H]1C[C@H](C)S(=O)(=O)c2sc(S(N)(=O)=O)cc21 [Dorzolamide HCl] | 81% |  | 87% |  |
| C#C[C@]1(O)CC[C@H]2[C@@H]3CCc4cc(OC)ccc4[C@H]3CC[C@@]21C [Mestranol] | 99% |  | 77% |  |
| CC1(C)S[C@@H]2[C@H](NC(=O)C(C(=O)O)c3ccccc3)C(=O)N2[C@H]1C(=O)O (stereo partly shown) [Carbenicillin disodium] | 101% |  | 87% |  |
| L-Adrenaline |  |  |  | % Phosphatase Activity (compared to DMSO) PRL-2 (recombinant PRL-2): 98%; % Phosphatase Activity (compared to DMSO) PRL-3 (recombinant PRL-3): 71% |
| C[C@@H](Oc1cc(-c2cnn(C3CCNCC3)c2)cnc1N)c1c(Cl)ccc(F)c1Cl [Crizotinib (PF-02341066)] | 119% |  | 81% |  |
| C[C@@H](c1ncncc1F)[C@](O)(Cn1cncn1)c1ccc(F)cc1F [Voriconazole] |  |  |  | % Phosphatase Activity (compared to DMSO) PRL-2 (recombinant PRL-2; [2]): 92%; % Phosphatase Activity (compared to DMSO) PRL-3 (recombinant PRL-3; [2]): 86% |
| Cc1ccnc(NS(=O)(=O)c2ccc(N)cc2)n1 [Sulfamerazine] |  |  |  | % Phosphatase Activity (compared to DMSO) PRL-2 (recombinant PRL-2; [2]): 108%; % Phosphatase Activity (compared to DMSO) PRL-3 (recombinant PRL-3; [2]): 83% |
| CN(CCOc1ccc(NS(C)(=O)=O)cc1)CCc1ccc(NS(C)(=O)=O)cc1 [Dofetilide] | 88% |  | 82% |  |
| Clc1ccccc1C(c1ccccc1)(c1ccccc1)n1ccnc1 [Clotrimazole] | 108% |  | 88% |  |
| COc1cc(OC)c(C(=O)CCCN2CCCC2)c(OC)c1.Cl [Buflomedil HCl] | 118% |  | 87% |  |
| Nc1ccc(S(N)(=O)=O)cc1 [Sulfanilamide] |  |  |  | % Phosphatase Activity (compared to DMSO) PRL-2 (recombinant PRL-2; [2]): 92%; % Phosphatase Activity (compared to DMSO) PRL-3 (recombinant PRL-3; [2]): 77% |

Reference: paper PMC8119466, “A screen of FDA-approved drugs identifies inhibitors of protein tyrosine phosphatase 4A3 (PTP4A3 or PRL-3)” (Scientific Reports, 2021)
